Source: PubChem BioAssay (NCI)
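Cells were grown in 96-well plates and exposed to each compound for 48 hours at five concentrations; endpoints were interpolated linearly between bracketing concentrations, or set to the highest concentration if not reached. Abbreviation: GI50, concentration required for 50% inhibition of growth. TGI: total growth inhibition.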

How the values were obtained:
Assay in all cases: DTP human tumour cell line panel, 48 h
[1] = system: NCI-H23 lung
[2] = system: SK-MEL-5 melanoma
[3] = system: K-562 leukemia
[4] = system: TK-10 renal
[5] = system: EKVX NSCLC
[6] = system: BT-549 breast
[7] = system: NCI/ADR-RES ovarian
[8] = system: SNB-75 CNS
[9] = system: HL-60(TB) leukemia
[10] = system: UACC-257 melanoma
[11] = system: T-47D breast
[12] = system: DU-145 prostate
[13] = system: HOP-92 NSCLC
[14] = system: HS 578T breast
[15] = system: SN12C renal
[16] = system: NCI-H522 lung
[17] = system: RXF 393 renal
[18] = system: CAKI-1 renal
[19] = system: ACHN renal
[20] = system: CCRF-CEM leukemia
[21] = system: MOLT-4 leukemia
[22] = system: PC-3 prostate
[23] = system: SF-268 CNS
[24] = system: MALME-3M melanoma
[25] = system: RPMI-8226 leukemia
[26] = system: HCT-15 colon
[27] = system: KM12 colon
[28] = system: OVCAR-4 ovarian
[29] = system: HT29 colon

COc1ccc([C@H]2[C@H](O)C(=O)N2c2cc(OC)c(OC)c(OC)c2)cc1Cl
GI50 [1]: 10.6 nM
TGI [1]: > 100000 nM
GI50 [2]: < 10 nM
TGI [2]: 36.5 nM
GI50 [3]: < 10 nM
TGI [3]: > 100000 nM
GI50 [4]: > 100000 nM
TGI [4]: > 100000 nM
TGI [5]: > 100000 nM
GI50 [6]: < 12.5 nM
TGI [6]: 718 nM
GI50 [7]: < 13.6 nM
GI50 [8]: < 10 nM
TGI [8]: > 100000 nM
GI50 [9]: < 10 nM
TGI [10]: > 100000 nM
GI50 [11]: > 38400 nM
TGI [11]: > 100000 nM
GI50 [12]: < 12.8 nM
TGI [12]: > 100000 nM
GI50 [13]: 828 nM
TGI [13]: > 100000 nM
GI50 [14]: < 15.8 nM
TGI [14]: > 100000 nM
GI50 [15]: < 10 nM
TGI [15]: > 100000 nM
GI50 [16]: < 10 nM
TGI [16]: < 10.5 nM
GI50 [17]: < 10 nM
TGI [17]: > 100000 nM
GI50 [18]: < 10 nM
TGI [18]: > 43100 nM
GI50 [19]: < 10 nM
TGI [19]: > 100000 nM
GI50 [20]: < 10 nM
TGI [20]: > 100000 nM
GI50 [21]: < 17 nM
TGI [21]: > 100000 nM
GI50 [22]: < 16.8 nM
TGI [22]: > 100000 nM
GI50 [23]: < 24.1 nM
TGI [23]: > 100000 nM
GI50 [24]: < 14.9 nM
TGI [24]: > 100000 nM
GI50 [25]: < 11.2 nM
TGI [25]: > 35400 nM
GI50 [26]: < 11.8 nM
TGI [26]: > 100000 nM
GI50 [27]: < 11.3 nM
TGI [27]: > 100000 nM
GI50 [28]: 442 nM
TGI [28]: > 100000 nM
GI50 [29]: < 10 nM
